Reference: patent US20260193642A1, “DIRECT MEASUREMENT OF ENGINEERED CANCER MUTATIONS AND THEIR TRANSCRIPTIONAL PHENOTYPES IN SINGLE CELLS” (The Board of Trustees of the Leland Stanford Junior …, priority 2022, published 2026)

Assays:
[1] = tested on: HCT116 cells; assay: Cell cycle analysis, EdU and propidium iodide flow cytometry assay; format: cell-based, human; conditions: 24 hrs nutlin-3a treatment
Procedure: Cell cycle analysis: Click-iT™ Plus EdU Alexa Fluor™ 488 Flow Cytometry Assay Kit (Life technologies) was used according to manufacturer's protocol. Briefly, cells were plated a day prior to nutlin-3a or vehicle treatment. After 24 hrs of chemical treatment, cells in S-phase were labeled with […] EdU solution for 2 hrs. FxCycle™ PI/RNase Staining Solution (Life technologies) was used for PI staining. After the staining, cells were analyzed by NovoCyte Quanteon Flow Cytometer Systems (Agilent, Santa Clara, CA, USA).
The PI assay detects total DNA amounts for G1 and G2-phase comparison. The EdU assay labels newly synthesized DNA to detect S-phase.

[2] = tested on: p53 pathway; conditions: U2OS cells (wild-type TP53); 10 μM nutlin-3a; 5 μM, 10 μM and 20 μM tested
Text: Cell culture conditions: HEK293T (ATCC CRL-11268) and MMNK-1 (JCRB1554) cells were maintained in Dulbecco's modified Eagle's medium (DMEM) with 10% fetal bovine serum (FBS). HCT116 (ATCC CCL-247) cells and U2OS (ATCC HTB-96) were maintained in McCoy's 5A modified medium supplemented with 10% FBS. […] K562 (ATCC CCL-243) cells were maintained in RPMI 1640 with 10% FBS. Cells were authenticated by STR profiling. All cell lines were confirmed by PCR to be free of mycoplasma contamination.
HCT116 and U2OS human cell lines were used for this study. Both cell lines have wild-type TP53 which was independently confirmed.

For `COc1ccc(C2=N[C@@H](c3ccc(Cl)cc3)[C@@H](c3ccc(Cl)cc3)N2C(=O)N2CCNC(=O)C2)c(OC(C)C)c1` [nutlin-3a], the cell cycle arrest ([1]; HCT116 clonal cells with TP53 I195T mutation, FIG. 4C, P=0.95) was “did not undergo arrest”, the cell cycle arrest ([1]; HCT116 clonal cells with TP53 Y220C mutation, FIG. 4C, P=0.95) was “did not undergo arrest” and the cell cycle arrest ([1]; wild-type HCT116 cells, FIG. 4c, P<2.2e-16) was “arrested”. For the same compound, the p53 pathway activation [2] was “successful p53 pathway activation”.
